Where two headings read alike, the source gives them in different places.
What was measured:
Aspergillus flavus [1] = experiment: MIC/MFC broth microdilution (CLSI); conditions: ATCC204304
Method: (§1) Antifungal susceptibility was determined by broth microdilution according to the CLSI guidelines described in M27-Ed4 ([16]). […] MFC was determined by back-plating drug-treated cultures from MIC broths onto SDA plates. The MFC was defined as the lowest concentration from which no colonies could be cultured.

Aspergillus flavus [2] = experiment: checkerboard drug interaction (FICI, MICc);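 also: simplified diagonal checkerboard screen pairing azole antifungals with FPPS inhibitors, FICI calculated under the Loewe additivity model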; assay type: cell-based; set-up: INH MICc (KET:INH) / INH MICc (FLC:INH): unit not given beside the values; conditions: A. flavus
Aspergillus fumigatus [3] = experiment: MIC/MFC broth microdilution (CLSI); conditions: ATCC204305
Method: as §1

Saccharomyces cerevisiae [4] = experiment: checkerboard drug interaction (FICI, MICc); assay type: cell-based; set-up: INH MICc / INH MICc (ITR:INH) / INH MICc (KET:INH) / INH MICc (FLC:INH): unit not given beside the values;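 also: simplified diagonal checkerboard screen pairing antifungals with FPPS inhibitors, FICI calculated under the Loewe additivity model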
Trichophyton rubrum [5] = experiment: MIC/MFC broth microdilution (CLSI); conditions: Trichophyton rubrum
Method: as §1

[6] = test system: Cryptococcus deuterogattii; experiment: MIC/MFC broth microdilution (CLSI); conditions: Cryptococcus deuterogattii;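 also: broth microdilution per CLSI M27-Ed4. MFC is the lowest concentration yielding no colonies when MIC broths are subcultured onto SDA plates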
Method: as §1

Trichophyton rubrum [7] = experiment: checkerboard drug interaction (FICI, MICc);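 also: simplified diagonal checkerboard screen pairing azole antifungals with FPPS inhibitors, FICI calculated under the Loewe additivity model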; assay type: cell-based; conditions: T. rubrum
Method: (§2) Drug interactions between antifungals and FPPS inhibitors were investigated using a simplified checkerboard diagonal screening method ([45]). […] FICIs were determined according to the Loewe additivity model ([17]).

Candida glabrata [8] = experiment: MIC/MFC broth microdilution (CLSI); conditions: Nakaseomyces glabratus, CBS138;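 also: broth microdilution following CLSI M27-Ed4, MFC taken as the lowest drug level yielding no growth once MIC wells were subcultured on SDA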
Method: as §1

[9] = test system: Cryptococcus deuterogattii; experiment: checkerboard drug interaction (FICI, MICc);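 as to all read-outs here: simplified diagonal checkerboard screen pairing antifungal drugs with FPPS inhibitors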; assay type: cell-based; conditions: C. deuterogattii; for INH FD (MIC-MICc fold decrease): fold decrease of inhibitor MIC
Method: as §2

Candida albicans [10] = experiment: MIC/MFC broth microdilution (CLSI); assay type: cell-based; conditions: Candida albicans SC5314
Method: as §1

HEK-293T cells = experiment: MTT reduction cytotoxicity assay; assay type: cell-based; conditions: Homo sapiens, HEK-293T, 72 h, MTT, 72 h
Candida glabrata [11] = experiment: checkerboard drug interaction (FICI, MICc);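 as to all read-outs here: simplified diagonal checkerboard screen pairing antifungals with FPPS inhibitors, FICI calculated under the Loewe additivity model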; assay type: cell-based; conditions: C. glabrata; for INH FD (MIC-MICc fold decrease): fold decrease of inhibitor MIC
Method: as §2

Saccharomyces cerevisiae [12] = experiment: MIC/MFC broth microdilution (CLSI); assay type: cell-based; conditions: Saccharomyces cerevisiae S288c
Method: as §1

eight fungal species [13] = experiment: MIC/MFC summary across the eight fungal species of Table 1; assay type: cell-based
Method: The antifungal activity of these compounds was evaluated according to CLSI guidelines ([16]).

eight fungal species [14] = experiment: checkerboard interaction with azoles, summary across the eight species; assay type: cell-based; conditions: geometric mean MIC in combination with azoles
Text: Synergy between lipophilic FPPS inhibitors and azole antifungals was investigated by determining the fractional inhibitory concentration index (FICI) (Fig. 2; Table S1 Fig. S1) ([17]). […]. Derivatives PLA9 and 11, and PDA9, 11, and 12 antagonized azoles in C. albicans, C. neoformans, and C. deuterogattii, yet were largely synergistic in C. glabrata and S. cerevisiae. […].

Aspergillus fumigatus [15] = experiment: checkerboard drug interaction (FICI, MICc); assay type: cell-based;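 also: simplified diagonal checkerboard screen pairing antifungals with FPPS inhibitors against Aspergillus fumigatus, with FICI calculated under the Loewe additivity model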
Method: as §2

Cryptococcus neoformans [16] = experiment: MIC/MFC broth microdilution (CLSI); conditions: Cryptococcus neoformans;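 also: susceptibility testing followed the CLSI M27-Ed4 broth microdilution document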
Method: as §1

Cryptococcus neoformans [17] = experiment: checkerboard drug interaction (FICI, MICc);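 as to all read-outs here: antifungal plus FPPS inhibitor pairs tested against Cryptococcus neoformans by simplified diagonal checkerboard screening, FICI computed under the Loewe additivity model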; assay type: cell-based; conditions: C. neoformans; for INH FD (MIC-MICc fold decrease): fold decrease of inhibitor MIC
Method: as §2

Candida albicans [18] = experiment: checkerboard drug interaction (FICI, MICc);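 as to all read-outs here: antifungal plus FPPS inhibitor combinations on Candida albicans tested by a simplified diagonal checkerboard screen, with FICI calculated under the Loewe additivity model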; assay type: cell-based; conditions: C. albicans; for INH FD (MIC-MICc fold decrease): fold decrease of inhibitor MIC
Method: as §2

[19] = Fractional Inhibitory Concentration Index, fluconazole + inhibitor
[20] = Fractional Inhibitory Concentration Index, itraconazole + inhibitor
[21] = Fractional Inhibitory Concentration Index, ketoconazole + inhibitor
[22] = MIC of the inhibitor in combination with fluconazole
[23] = MIC of the inhibitor in combination with itraconazole
[24] = MIC of the inhibitor in combination with ketoconazole
[25] = MIC-MICc fold decrease of fluconazole, negative = increase
[26] = MIC-MICc fold decrease of itraconazole, negative = increase
[27] = MIC-MICc fold decrease of ketoconazole, negative = increase
[28] = MIC-MICc fold decrease of the inhibitor, with fluconazole
[29] = MIC-MICc fold decrease of the inhibitor, with itraconazole
[30] = MIC-MICc fold decrease of the inhibitor, with ketoconazole
[31] = FLC:INH combination, MIC of the inhibitor in combination with FLC
[32] = FLC:INH combination, fold decrease of FLC MIC
[33] = ITR:INH combination, MIC of the inhibitor in combination with ITR
[34] = ITR:INH combination, fold decrease of ITR MIC
[35] = KET:INH combination, MIC of the inhibitor in combination with KET
[36] = KET:INH combination, fold decrease of KET MIC

CCCCCCCCCN1CCC[C@H]1C(=O)N[C@H](CC(=O)OC)C(=O)OC [dmPDA9]
0.52: FICI (ITR:INH) (Aspergillus fumigatus [15]; [20])
-4: ITR FD (MIC-MICc fold decrease) (Cryptococcus neoformans [17]; [34]) | KET FD (MIC-MICc fold decrease) (Cryptococcus neoformans [17]; [36])
10.4 µg/mL: IC50 (HEK-293T cells; HEK-293T cells, read-out: IC50) | IC50 (HEK-293T cells; read-out: HEK IC50)
1: FICI (KET:INH) (Aspergillus flavus [2]; [21]) | FLC FD (FLC:INH) (Aspergillus flavus [2]; [25]) | ITR FD (ITR:INH) (Aspergillus flavus [2]; [26]) | INH FD (FLC:INH) (Aspergillus flavus [2]; [28]) | INH FD (ITR:INH) (Aspergillus flavus [2]; [29]) | INH FD (FLC:INH) (Saccharomyces cerevisiae [4]; [28]) | INH FD (ITR:INH) (Saccharomyces cerevisiae [4]; [29]) | INH FD (FLC:INH) (Trichophyton rubrum [7]; [28]) | INH FD (ITR:INH) (Trichophyton rubrum [7]; [29]) | INH FD (KET:INH) (Trichophyton rubrum [7]; [30]) | INH FD (MIC-MICc fold decrease) ([9]; FLC:INH combination) | ITR FD (MIC-MICc fold decrease) [9, 34] | INH FD (MIC-MICc fold decrease) ([9]; KET:INH combination) | ITR FD (MIC-MICc fold decrease) (Candida glabrata [11]; [34]) | KET FD (MIC-MICc fold decrease) (Candida glabrata [11]; [36]) | KET FD (KET:INH) (Aspergillus fumigatus [15]; [27]) | INH FD (FLC:INH) (Aspergillus fumigatus [15]; [28]) | INH FD (KET:INH) (Aspergillus fumigatus [15]; [30]) | FLC FD (MIC-MICc fold decrease) (Cryptococcus neoformans [17]; [32]) | INH FD (MIC-MICc fold decrease) (Cryptococcus neoformans [17]; ITR:INH combination) | INH FD (MIC-MICc fold decrease) (Cryptococcus neoformans [17]; KET:INH combination)
< -4: FLC FD (MIC-MICc fold decrease) (Candida albicans [18]; [32]) | ITR FD (MIC-MICc fold decrease) (Candida albicans [18]; [34]) | KET FD (MIC-MICc fold decrease) (Candida albicans [18]; [36])
3: FICI (ITR:INH) (Saccharomyces cerevisiae [4]; [20]) | FICI ([9]; FLC:INH combination)
4: FLC FD (FLC:INH) (Trichophyton rubrum [7]; [25]) | KET FD (KET:INH) (Trichophyton rubrum [7]; [27]) | INH FD (MIC-MICc fold decrease) ([9]; ITR:INH combination) | INH FD (MIC-MICc fold decrease) (Candida glabrata [11]; FLC:INH combination) | INH FD (MIC-MICc fold decrease) (Cryptococcus neoformans [17]; FLC:INH combination)
128 µg/mL: MIC (Aspergillus fumigatus [3]) | MIC (Candida glabrata [8]) | MIC (Candida albicans [10]) | MFC (Saccharomyces cerevisiae [12]) | MFC (Cryptococcus neoformans [16])
181 µg/mL: MFC (eight fungal species [13]; across eight species, read-out: Geometric mean MFC)
≥4: FICI (Cryptococcus neoformans [17]; ITR:INH combination) | FICI (Cryptococcus neoformans [17]; KET:INH combination) | FICI (Candida albicans [18]; FLC:INH combination) | FICI (Candida albicans [18]; ITR:INH combination) | FICI (Candida albicans [18]; KET:INH combination)
> 128 µg/mL: MFC (Aspergillus flavus [1]) | MIC (Aspergillus flavus [1]) | MFC (Aspergillus fumigatus [3]) | MFC (Trichophyton rubrum [5]) | MFC (Candida glabrata [8]) | MFC (Candida albicans [10])
2.5: FICI (KET:INH) (Saccharomyces cerevisiae [4]; [21]) | FICI (Candida glabrata [11]; FLC:INH combination)
64: INH MICc (FLC:INH) (Saccharomyces cerevisiae [4]; [22]) | INH MICc (ITR:INH) (Saccharomyces cerevisiae [4]; [23]) | INH FD (ITR:INH) (Aspergillus fumigatus [15]; [29]) | INH MICc (Candida albicans [18]; [31]) | INH MICc (Candida albicans [18]; [33]) | INH MICc (Candida albicans [18]; [35])
128: INH MICc (KET:INH) (Aspergillus flavus [2]; [24]) | INH MICc (KET:INH) (Saccharomyces cerevisiae [4]; [24]) | INH MICc [9, 31] | INH MICc [9, 35] | INH MICc (FLC:INH) (Aspergillus fumigatus [15]; [22]) | INH MICc (KET:INH) (Aspergillus fumigatus [15]; [24]) | INH MICc (Cryptococcus neoformans [17]; [33]) | INH MICc (Cryptococcus neoformans [17]; [35])
1.25: FICI (FLC:INH) (Trichophyton rubrum [7]; [19]) | FICI (KET:INH) (Trichophyton rubrum [7]; [21]) | FICI ([9]; ITR:INH combination) | FICI (Cryptococcus neoformans [17]; FLC:INH combination)
-2: ITR FD (ITR:INH) (Saccharomyces cerevisiae [4]; [26]) | INH FD (KET:INH) (Saccharomyces cerevisiae [4]; [30]) | FLC FD (MIC-MICc fold decrease) [9, 32] | FLC FD (MIC-MICc fold decrease) (Candida glabrata [11]; [32])
16: INH FD (MIC-MICc fold decrease) (Candida glabrata [11]; ITR:INH combination) | INH FD (MIC-MICc fold decrease) (Candida glabrata [11]; KET:INH combination)
32: INH MICc (FLC:INH) (Trichophyton rubrum [7]; [22]) | INH MICc (ITR:INH) (Trichophyton rubrum [7]; [23]) | INH MICc (KET:INH) (Trichophyton rubrum [7]; [24]) | INH MICc [9, 33] | INH MICc (Candida glabrata [11]; [31]) | INH MICc (Cryptococcus neoformans [17]; [31])
8: ITR FD (ITR:INH) (Trichophyton rubrum [7]; [26]) | INH MICc (Candida glabrata [11]; [33]) | INH MICc (Candida glabrata [11]; [35])
256: INH MICc (FLC:INH) (Aspergillus flavus [2]; [22]) | INH MICc (ITR:INH) (Aspergillus flavus [2]; [23])
1.13: FICI (ITR:INH) (Trichophyton rubrum [7]; [20]) | FICI (Candida glabrata [11]; ITR:INH combination) | FICI (Candida glabrata [11]; KET:INH combination)
2: FICI (FLC:INH) (Aspergillus flavus [2]; [19]) | FICI (ITR:INH) (Aspergillus flavus [2]; [20]) | KET FD (KET:INH) (Aspergillus flavus [2]; [27]) | INH FD (KET:INH) (Aspergillus flavus [2]; [30]) | FLC FD (FLC:INH) (Saccharomyces cerevisiae [4]; [25]) | KET FD (KET:INH) (Saccharomyces cerevisiae [4]; [27]) | KET FD (MIC-MICc fold decrease) [9, 36] | FICI (KET:INH) (Aspergillus fumigatus [15]; [21]) | INH MICc (ITR:INH) (Aspergillus fumigatus [15]; [23]) | FLC FD (FLC:INH) (Aspergillus fumigatus [15]; [25]) | ITR FD (ITR:INH) (Aspergillus fumigatus [15]; [26]) | INH FD (MIC-MICc fold decrease) (Candida albicans [18]; FLC:INH combination) | INH FD (MIC-MICc fold decrease) (Candida albicans [18]; ITR:INH combination) | INH FD (MIC-MICc fold decrease) (Candida albicans [18]; KET:INH combination)
83 µg/mL: MIC (eight fungal species [13]; geometric mean across eight species, read-out: GM fungal MIC) | MIC (eight fungal species [13]; read-out: Geometric mean MIC)
64 µg/mL: MFC [6] | MIC [6] | MIC (Saccharomyces cerevisiae [12])
55.4: GM fungal MICc (eight fungal species [14])
32 µg/mL: MIC (Trichophyton rubrum [5]) | MIC (Cryptococcus neoformans [16])
1.5: FICI (FLC:INH) (Saccharomyces cerevisiae [4]; [19]) | FICI ([9]; KET:INH combination) | FICI (FLC:INH) (Aspergillus fumigatus [15]; [19])
